This note sets out measurements from US6753329B2, “Inhibitors of cyclin-dependent kinases, compositions and uses related thereto” (GPC Biotech Inc., priority 2001, dated 2004).

Like-named read-outs stand apart in the source and are kept apart here. Bounds are passed on as bounds.

Test [1] addresses T1, Cdk4/cyclin D1 (Homo sapiens, UniProt P11802).
T1 construct: made in house; host or cells: Sf9 insect cells
Nature of the test: Cdk4/cyclin D1 inhibition, glutathione-sepharose capture assay. Format: biochemical. The following applies: read-out: K4/D1. An excerpt: (§1) Enzymes: Cdc2/cyclin B was obtained from commercial sources. Cdk2/his-cyclin Eshort was expressed in Sf9 cells. Cdk2/cyclin A, cdk4/cyclin D1, and cdk6/cyclin D2 were expressed in Sf9 cells. Protein kinase A (catalytic subunit, from bovine heart) and protein kinase C (mixed isozymes from rat brain) were obtained from commercial sources.
(§2) Substrates: Histone H1 was from commercial sources. GST-Rb is glutathione-S-transferase fused to the N-terminal of residues 379-928 of the Rb protein.
(§3) Cdk2/cyclin E, Cdk4/cyclin D1, and Cdk6/cyclin D2 activity was determined using a glutathione-sepharose capture assay. The enzymes were expressed in Sf9 insect cells as heterodimers, and the substrate (GST-Rb) was glutathione-S-transferase fused to residues 379 to 928 of Rb retinoblastoma protein, expressed in E. coli. The assay solution contained 50 mM Tris.HCl, 10 mM MgCl2, 1 mM dithiothreitol, 50 μM adenosine triphosphate, 2 μCi [γ-^33P]adenosine triphosphate, 10% dimethylsulfoxide (from compounds), pH 7.5, 40 µg GST-Rb, and enzyme in a 100 μL volume. Compounds were added at various concentrations between 1 nM and 10 μM. The reaction was allowed to proceed for 15 min at 30° C. and was stopped by the addition of 70 μL of stop solution (237 mM disodium ethylenediamine tetraacetate, 105 mM adenosine triphosphate, pH 8.0). The GST-Rb was captured by binding to glutathione-sepharose bead (Amersham) for 110 min, and the suspension was filtered through a glass fiber filter. After washing the retained beads five time with phosphate-buffered saline containing 0.3% (w/v) Tween-20, the amount of ^33P incorporated was determined by scintillation counting after adding 100 μL scintillant. Relative activity was determined by dividing the amount of radioactivity incorporated in the presence of compound by the amount of radioactivity incorporated in a control experiment containing DMSO alone but no compound. The background radioactivity, determined in an experiment containing 50 mM disodium ethylenediamine tetraacetate in place of compound, was subtracted from all results before calculations.

Test [2] concerns the target T2, CDK2/cyclinE (Homo sapiens, UniProt P24941). Nature of the test: Cdk2/cyclin E inhibition, glutathione-sepharose capture assay. Format: biochemical. Details: made in house; host or cells: Sf9 insect cells. The note with it: 50 μM ATP, GST-Rb substrate; read-out: K2/E.
Text: as §1, §2, §3

Test [3] deals with T3, Cdk2/cyclin A (Homo sapiens, UniProt P24941).
T3 construct: made in house; host or cells: Sf9 cells
The test is described as follows: Cdk2/cyclin A inhibition assay. Format: biochemical. The following applies: read-out: K2/A.
Text: as §1

Test [4] concerns the target T4, Cdk6/cyclin D2 (Homo sapiens, UniProt Q00534).
T4 construct: made in house; host or cells: Sf9 insect cells
The test is described as follows: Cdk6/cyclin D2 inhibition, glutathione-sepharose capture assay. The note with it: 50 μM ATP, GST-Rb substrate; read-out: K6/D2. Type of test: biochemical.
Text: as §1, §2, §3

For test [5], the target named is T5, Cdc2/cyclin B (Homo sapiens, UniProt P06493).
T5 construct: purchased
T5 sequence (P06493 whole entry, species assumed): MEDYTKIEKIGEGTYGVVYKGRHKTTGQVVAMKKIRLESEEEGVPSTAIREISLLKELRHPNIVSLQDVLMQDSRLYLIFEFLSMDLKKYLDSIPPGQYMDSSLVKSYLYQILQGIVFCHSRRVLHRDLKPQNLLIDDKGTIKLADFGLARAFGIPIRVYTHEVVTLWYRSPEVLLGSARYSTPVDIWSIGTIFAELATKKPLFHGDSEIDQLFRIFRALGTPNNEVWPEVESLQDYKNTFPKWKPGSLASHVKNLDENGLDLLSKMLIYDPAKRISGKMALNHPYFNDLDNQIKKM
T5 sequence (P14635 whole entry partner, species assumed): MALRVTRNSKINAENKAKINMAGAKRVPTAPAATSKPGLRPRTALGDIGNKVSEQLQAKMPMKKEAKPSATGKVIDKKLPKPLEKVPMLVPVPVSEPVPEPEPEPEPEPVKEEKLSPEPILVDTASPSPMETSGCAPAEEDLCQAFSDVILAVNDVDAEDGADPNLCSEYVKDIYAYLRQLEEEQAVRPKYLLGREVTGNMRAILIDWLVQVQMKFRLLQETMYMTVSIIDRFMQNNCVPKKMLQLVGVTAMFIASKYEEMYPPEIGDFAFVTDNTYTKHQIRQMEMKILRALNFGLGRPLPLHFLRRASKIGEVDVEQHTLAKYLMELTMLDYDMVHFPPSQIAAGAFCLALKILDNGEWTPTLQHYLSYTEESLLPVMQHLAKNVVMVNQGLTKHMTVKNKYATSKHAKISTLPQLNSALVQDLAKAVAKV
The test is described as follows: Cdc2/cyclin B inhibition, TCA precipitation assay. Format: biochemical. The note with it: 50 μM ATP, Histone H1 substrate. Here is the method:
as §1
Assays: Cdc2/cyclinB activity was determined by measuring incorporation of radioactivity from adenosine [γ-^32P]triphosphate into Histone H1 using a TCA precipitation assay. Cdc2/cyclin B kinase and Histone H1 were obtained from commercial sources. The final assay solution contained 50 mM Tris.HCl, 10 mM MgCl2, 1 mM dithiothreitol, 50 μM adenosine triphosphate, 2 μCi ^32P, 10% dimethylsulfoxide (from compounds), pH 7.5, 20 μg Histone H1, 6 U enzyme in a 50 μL volume. Compounds were added at various concentrations between 1 nM and 10 μM. The reaction was started with the addition of enzyme, allowed to proceed for 20 min at 30° C., and stopped by the addition of 20 μL of stop solution (237 mM disodium ethylenediamine tetraacetate, 105 mM adenosine triphosphate, pH 8.0). The protein was precipitated by the addition of 35 μL 70% (w/v) trichloroacetic acid, and the precipitate was captured on a 96-well glass fiber filter plate (Millipore, Inc.), which had been wet with 25% (w/v) trichloroacetic acid. The filter was washed ten times with 25% (w/v) trichloroacetic acid, and the amount of incorporated ^32P was determined by scintillation counting after adding 100 μL scintillant (Microscint 20, Packard Instruments). Relative activity was determined by dividing the amount of radioactivity incorporated in the presence of compound by the amount of radioactivity incorporated in a control experiment containing DMSO alone but no compound. The background radioactivity, determined in an experiment containing 50 mM EDTA in place of compound, was subtracted from all results before calculations.
P=min+(max−min)(1/(1+(IC50/[I])^s)) (1)
where P=1—relative activity is relative inhibition, [I] is concentration of compound, max and min are the maximum and minimum relative inhibition (1 and 0, respectively) and s is the so-called Hill slope.

Test [6] concerns the target c-Abl (Homo sapiens, UniProt P00519). Nature of the test: c-Abl inhibition. Format: biochemical.
Test [7] addresses T6, Protein kinase A (catalytic subunit, from bovine heart) (Bos taurus, UniProt P00517).
T6 construct: Protein kinase A (catalytic subunit, from bovine heart); purchased; host or cells: bovine heart
The test is described as follows: Protein kinase A inhibition, TCA precipitation assay. Format: biochemical. The following applies: 12 μM ATP, Histone H1; read-out: PKA. Here is the method:
as §1
Protein kinase C and protein kinase A were assayed using a TCA precipitation assay with Histone H1 as a substrate. For protein kinase A, the final assay contained 50 mM Tris, 10 mM MgCl2, 1 mM dithiothreitol, pH 7.5, 12 μM adenosine triphosphate, 10% (v/v) dimethylsulfoxide (from compounds), 20 μg Histone H1, 2 μCi [γ-^32P] adenosine triphosphate, 0.2 U protein kinase A in a 100 μL assay. A protein kinase C assay contained 50 mM Tris, 10 mM MgCl2, 1 mM dithiothreitol, 0.8 mM CaCl2, pH 7.5, 5 μM adenosine triphosphate, 10% (v/v) dimethylsulfoxide (from compounds), 20 μg Histone H1, 2 μCi [γ-^32P] adenosine triphosphate, 0.01 U protein. kinase C in a 50 μL assay. The assays were started by the addition of enzyme, allowed to react for 10 min at 30° C., and stopped by adding 0.4 volumes of 237 mM disodium ethylenediamine tetraacetate, 105 mM adenosine triphosphate, pH 8.0. The protein was precipitated from the stopped reaction by adding 0.5 volume 75% (w/v) trichloroacetic acid and captured by filtering through a 96-well glass fiber filtration apparatus (Millipore). The filters were washed ten times with 25% (w/v) trichloroacetic acid, and the amount of incorporated [^32P]phosphate was determined by adding 100 μl Microscint and scintillation counting.

For test [8], the target named is T2, CDK2/cyclinE. Nature of the test: BIACORE SPR binding of CDK2/cyclinE to compound-loaded CM5 chip. The note with it: 22° C., compound coupled to CM5 chip, Langmuir 1:1 model. Here is the method: The affinity of chemical compounds to their corresponding binding partners may be determined, for example, using a BIACORE™ assay system (Biacore AB, Uppsala, SE). Other systems yielding a qualitatively similar result, such as, for example, those developed by Affinity Sensors (Cambridge, UK), will be readily apparent to those skilled in the art.
In a representative procedure, the binding of Compound R to its known binding partners CDK2/cyclinE was analyzed. The analysis was performed on a BLACORE 2000 SPR-Biosensor at 22° C. in a running buffer containing 20 mM HEPES (pH 7.4), 150 mM NaCl, 1 mM DTT and 0.005% Tween 20 (protein grade, Calbiochem). A 10 μM solution of Compound R was coupled at pH 8.0 to the dextrane-surface of a CM5 sensor-chip (research grade) via amide coupling chemistry. […] The association and dissociation of the CDK2/cyclinE complex onto the CM5-Compound R-loaded chip surface was measured at a flow rate of 30 μl/min. […]
The data were analyzed using the Bioevaluation software version 3.1 (Biacore AB, Uppsala, SE). […] The association and dissociation rates were determined separately or globally using a Langmuir 1:1 binding model. The affinities (KD) were calculated using the equation: […]
In general terms: In SPR one partner is held on a chip, and binding of the other changes the refractive index at the surface.

Chain of c-Abl (P00519 whole entry): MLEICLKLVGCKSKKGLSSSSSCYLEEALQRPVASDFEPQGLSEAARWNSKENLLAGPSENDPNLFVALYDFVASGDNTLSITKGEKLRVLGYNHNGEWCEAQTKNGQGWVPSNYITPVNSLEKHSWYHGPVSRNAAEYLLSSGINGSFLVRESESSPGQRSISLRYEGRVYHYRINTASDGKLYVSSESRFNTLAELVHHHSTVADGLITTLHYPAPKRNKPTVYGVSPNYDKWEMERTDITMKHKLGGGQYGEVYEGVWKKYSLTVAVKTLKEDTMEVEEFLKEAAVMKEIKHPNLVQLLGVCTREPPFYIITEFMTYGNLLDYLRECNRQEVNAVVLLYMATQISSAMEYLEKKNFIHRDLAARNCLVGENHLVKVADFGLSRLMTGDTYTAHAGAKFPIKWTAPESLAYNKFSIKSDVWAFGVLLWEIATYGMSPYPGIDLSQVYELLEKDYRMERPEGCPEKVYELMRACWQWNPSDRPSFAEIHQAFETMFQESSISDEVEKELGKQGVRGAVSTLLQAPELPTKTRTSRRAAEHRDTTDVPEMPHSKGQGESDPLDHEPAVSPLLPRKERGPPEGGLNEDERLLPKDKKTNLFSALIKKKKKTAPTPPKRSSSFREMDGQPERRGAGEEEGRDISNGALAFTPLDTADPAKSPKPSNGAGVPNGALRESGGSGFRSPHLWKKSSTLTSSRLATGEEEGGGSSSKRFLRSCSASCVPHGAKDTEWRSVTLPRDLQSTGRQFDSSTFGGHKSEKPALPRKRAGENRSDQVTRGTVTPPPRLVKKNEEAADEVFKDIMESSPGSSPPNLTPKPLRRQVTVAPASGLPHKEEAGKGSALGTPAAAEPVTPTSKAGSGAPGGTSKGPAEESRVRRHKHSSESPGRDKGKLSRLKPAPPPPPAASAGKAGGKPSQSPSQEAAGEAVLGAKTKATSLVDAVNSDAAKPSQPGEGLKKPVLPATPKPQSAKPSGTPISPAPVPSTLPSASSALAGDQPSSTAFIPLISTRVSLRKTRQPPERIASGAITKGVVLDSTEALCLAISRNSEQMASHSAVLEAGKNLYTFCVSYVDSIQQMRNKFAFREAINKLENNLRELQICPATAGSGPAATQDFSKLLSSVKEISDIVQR
T1 sequence (P11802 whole entry, species assumed): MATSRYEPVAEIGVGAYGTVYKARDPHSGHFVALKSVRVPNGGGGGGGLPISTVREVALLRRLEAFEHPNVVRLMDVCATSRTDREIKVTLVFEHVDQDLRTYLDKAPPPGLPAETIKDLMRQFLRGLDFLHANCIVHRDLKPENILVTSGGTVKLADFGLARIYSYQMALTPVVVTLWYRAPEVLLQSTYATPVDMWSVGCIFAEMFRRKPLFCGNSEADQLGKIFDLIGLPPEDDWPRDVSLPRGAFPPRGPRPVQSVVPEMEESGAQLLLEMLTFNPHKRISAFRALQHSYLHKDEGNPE
T1 sequence (P24385 whole entry partner, species assumed): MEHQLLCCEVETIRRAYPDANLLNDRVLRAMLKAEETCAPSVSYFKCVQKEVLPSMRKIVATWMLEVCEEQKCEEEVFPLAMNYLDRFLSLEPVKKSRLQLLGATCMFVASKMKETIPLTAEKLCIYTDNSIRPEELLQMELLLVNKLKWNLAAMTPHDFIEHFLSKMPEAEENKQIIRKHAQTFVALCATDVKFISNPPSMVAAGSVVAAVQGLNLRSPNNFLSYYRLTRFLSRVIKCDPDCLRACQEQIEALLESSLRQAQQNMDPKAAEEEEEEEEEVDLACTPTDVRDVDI
T4 sequence (Q00534 whole entry, species assumed): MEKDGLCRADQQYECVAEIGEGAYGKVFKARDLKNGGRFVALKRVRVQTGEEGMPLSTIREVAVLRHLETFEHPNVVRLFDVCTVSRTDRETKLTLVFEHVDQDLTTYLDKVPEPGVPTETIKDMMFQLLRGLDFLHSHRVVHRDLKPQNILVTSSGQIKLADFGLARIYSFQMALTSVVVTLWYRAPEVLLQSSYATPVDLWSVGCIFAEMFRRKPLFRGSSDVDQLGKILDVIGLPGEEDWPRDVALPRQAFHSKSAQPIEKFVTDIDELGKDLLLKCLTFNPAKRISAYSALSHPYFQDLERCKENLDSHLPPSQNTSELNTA
T4 sequence (P30279 whole entry partner, species assumed): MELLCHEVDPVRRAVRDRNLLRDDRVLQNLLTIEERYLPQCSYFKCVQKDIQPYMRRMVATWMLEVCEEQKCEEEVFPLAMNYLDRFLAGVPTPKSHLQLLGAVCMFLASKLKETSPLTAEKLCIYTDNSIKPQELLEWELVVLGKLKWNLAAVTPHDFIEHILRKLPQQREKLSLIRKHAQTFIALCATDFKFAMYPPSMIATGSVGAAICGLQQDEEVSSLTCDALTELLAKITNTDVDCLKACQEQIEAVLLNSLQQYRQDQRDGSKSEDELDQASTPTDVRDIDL

As to `CC(C)c1nn(-c2c(Cl)cc(Cl)cc2Cl)c2nc(Cc3ccc(OCCN4CCOCC4)cc3)[nH]c(=O)c12` [A], the IC50 in test [1] (50 μM ATP, GST-Rb substrate) is less than 1000 nM; in test [1], less than 1000 nM; in test [2] it was less than 100 nM; in test [3], less than 100 nM; in test [4] it was less than 1000 nM; in test [5], less than 1000 nM.

Take `CC(C)c1nn(-c2c(Cl)cccc2Cl)c2nc(Cc3ccc(OP(=O)(O)O)cc3)[nH]c(=O)c12` [B]: the IC50 in test [1] (50 μM ATP, GST-Rb substrate) was less than 10000 nM; in test [2], less than 10 nM; in test [3], less than 100 nM; in test [5] it was less than 100 nM.

Regarding `CC(C)c1nn(-c2c(Cl)cccc2Cl)c2nc(Cc3ccc(O)c(CN4CCN(C(C)C)CC4)c3)[nH]c(=O)c12` [Compound C], the IC50 in test [1] (50 μM ATP, GST-Rb substrate) is less than 1000 nM; in test [2], less than 100 nM; in test [3], less than 100 nM; in test [6] it was greater than 10 µM; in test [7], greater than 10 µM; in test [5] it was less than 1000 nM.

For the compound `O=C(Nc1cccc2c1C(=O)c1c-2n[nH]c1-c1ccc(OCCN2CCCC2)cc1)NN1CCOCC1` [Compound I], the IC50 in test [1] (50 μM ATP, GST-Rb substrate) is less than 10 nM; in test [2], less than 100 nM; in test [3], less than 100 nM; in test [5], less than 100 nM.

For the compound `Cc1cc(-c2[nH]nc3c2C(=O)c2c(NC(=O)NN4CCN(C)CC4)cccc2-3)ccc1OCCN1CCCC1` [Compound P], in test [2], the IC50 was less than 100 nM.

Usually Kd stands for the concentration at which binding is half-saturated. Low readings indicate a tighter complex, high ones a looser complex. Take `CC(C)c1nn(-c2c(Cl)cc(Cl)cc2Cl)c2nc(Cc3ccc(OC(C)(C)C(=O)NCCOCCOCCOCCOCCOCCN)cc3)[nH]c(=O)c12` [Compound R]: the Kd in test [8] was 8 nM.

For the compound `CC(C)c1nn(-c2c(Cl)cc(Cl)cc2Cl)c2nc(Cc3ccc(NS(=O)(=O)CCCN4CCOCC4)cc3)[nH]c(=O)c12` [D], the IC50 in test [1] (50 μM ATP, GST-Rb substrate) is less than 1000 nM; in test [2] it was less than 100 nM; in test [3], less than 100 nM; in test [5], less than 1000 nM.

Regarding `CC(C)N1CCN(CCOc2ccc(-c3[nH]nc4c3C(=O)c3c(NC(=O)NN5CCOCC5)cccc3-4)cc2)CC1` [E], the IC50 in test [1] (50 μM ATP, GST-Rb substrate) is less than 10 nM; in test [1], less than 10 nM; in test [2] it was less than 10 nM; in test [3] it was less than 10 nM; in test [4], less than 10 nM; in test [6] it was less than 10 µM. Also, the values for the IC50 in test [7] and in test [5] were less than 10 µM and less than 100 nM, respectively.

Turning to `CN1CCN(NC(=O)Nc2cccc3c2C(=O)c2c-3n[nH]c2-c2ccc(OCCN3CCCC3)cc2)CC1` [F], the IC50 in test [1] (50 μM ATP, GST-Rb substrate) is less than 10 nM; in test [1], less than 10 nM; in test [2], less than 100 nM; in test [3] it was less than 100 nM; in test [4], less than 10 nM; in test [5] it was less than 100 nM.

Turning to `CCCN(CCOc1ccc(-c2[nH]nc3c2C(=O)c2c(NC(=O)NN4CCOCC4)cccc2-3)cc1)CC1CC1` [G], the IC50 is less than 10 nM in test [1] (50 μM ATP, GST-Rb substrate); less than 100 nM in test [2]; less than 100 nM in test [3]; greater than 10 µM in test [6]; greater than 10 µM in test [7]; less than 100 nM in test [5].

For the compound `O=C(Nc1cccc2c1C(=O)c1c-2n[nH]c1-c1ccc(OCCN(CCO)CCO)cc1)NN1CCOCC1` [H], the IC50 is less than 100 nM in test [1] (50 μM ATP, GST-Rb substrate); less than 100 nM in test [2]; less than 100 nM in test [3]; less than 100 nM in test [5].

On to `O=C(Nc1cccc2c1C(=O)c1c-2n[nH]c1-c1ccc(OP(=O)(O)O)cc1)NN1CCOCC1` [J], for which the IC50 in test [2] was less than 100 nM.

As to `CC(C)N1CCN(Cc2cc(-c3[nH]nc4c3C(=O)c3c(NC(=O)NN5CCOCC5)cccc3-4)ccc2O)CC1` [K], the IC50 in test [2] is less than 100 nM.

As to `Cc1cc(OCCN2CCCC2)ccc1-c1[nH]nc2c1C(=O)c1c(NC(=O)NN3CCN(C)CC3)cccc1-2` [L], the IC50 in test [1] (50 μM ATP, GST-Rb substrate) is less than 100 nM; in test [2], less than 100 nM; in test [5], less than 100 nM.

As for `CN1CCN(NC(=O)Nc2cccc3c2C(=O)c2c-3n[nH]c2-c2ccc(OCCN3CCC[C@H]3CO)cc2)CC1` [M], the IC50 in test [2] is less than 100 nM.

Turning to `CN1CCN(NC(=O)Nc2cccc3c2C(=O)c2c-3n[nH]c2-c2ccc(OCCN(CCO)CCO)cc2)CC1` [N], the IC50 in test [2] was less than 100 nM; in test [5], less than 10 nM.

As to `CN1CCN(NC(=O)Nc2cccc3c2C(=O)c2c-3n[nH]c2-c2ccc(OCCN3CC[C@H](O)C3)cc2)CC1` [O], the IC50 in test [2] was less than 100 nM.

For `CN1CCN(NC(=O)Nc2cccc3c2C(=O)c2c-3n[nH]c2-c2ccc(OCCN3CCOCC3)cc2)CC1` [Q], the IC50 in test [1] (50 μM ATP, GST-Rb substrate) is less than 10 nM; in test [1] it was less than 100 nM; in test [2] it was less than 10 nM; in test [3], less than 100 nM; in test [4], less than 100 nM; in test [5], less than 100 nM.
